Assay results as given in PubChem BioAssay (NCI).
Several values for one entry are separate records, joined by “and”; a condition that tells them apart may be missing. Equal entries are not always repeated.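 Where inhibition never reached the appropriate level, the endpoint shown equals the highest concentration tested. Otherwise, values were interpolated linearly from a five-concentration, 48-hour dose response in 96-well plates. At the GI50, growth is halved. TGI denotes the concentration required for complete inhibition of growth.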 Where a SMILES comes first, the peptide text is derived from it. [ ]: non-standard residue; d: D form. 2Nal = N[CH](Cc1ccc2ccccc2c1)C(=O)O

Experiments:
Test in all cases: NCI-60 cell line screen, 48 h
[1] = system: DU-145 prostate
[2] = system: HCT-116 colon
[3] = system: HL-60(TB) leukemia
[4] = system: HOP-62 NSCLC
[5] = system: HOP-92 NSCLC
[6] = system: MDA-MB-435
[7] = system: SF-295 CNS
[8] = system: SNB-75 CNS
[9] = system: SR leukemia
[10] = system: SW-620 colon

SMILES	TGI [1]	TGI [2]	TGI [3]	TGI [4]	TGI [5]	TGI [6]	TGI [7]	TGI [8]	TGI [9]	TGI [10]	GI50 [1]	GI50 [2]	GI50 [3]	GI50 [4]	GI50 [6]	GI50 [7]	GI50 [8]	GI50 [9]	GI50 [10]	GI50 [5]
COC(=O)C1=C(C(=O)OC)C2OC1c1cc3ccccc3cc12	21.6 µM	4.29 µM	2.22 µM	34.7 µM	6.34 µM	18 µM	38.3 µM	38.7 µM	3.55 µM	3.96 µM										
O=C(NNC(=S)Nc1ccccc1)c1ccccn1	> 100 µM	> 100 µM	7.85 µM	> 100 µM		> 100 µM	> 100 µM	> 100 µM	> 100 µM	> 100 µM	3.8 µM	3.02 µM	2.58 µM	5.52 µM	4.29 µM	1.97 µM	5.97 µM	1.63 µM	4.54 µM	
CCOC(=O)c1cc(-c2ccc(OC)c(OC)c2)[nH]c1N/N=C/c1c(Cl)cccc1Cl	8.5 µM	5.44 µM	6.15 µM	14.5 µM	26.8 µM	0.829 µM	8.31 µM	5.94 µM	1.93 µM	> 44.5 µM	2.38 µM	1.39 µM	1.86 µM	2.51 µM	0.307 µM	0.461 µM	1.85 µM	0.41 µM	2.5 µM	4.58 µM
CC1CCc2c(c(CC3CC(=O)NC(=O)C3)nn2-c2ccccc2)C1 (stereo not given)	> 100 µM	> 100 µM	> 100 µM	> 100 µM	> 100 µM	> 100 µM	> 100 µM	> 100 µM	> 100 µM	> 100 µM										
C=C1C(=O)OC2CC3(C)CCCC(C)C3=CC12 (stereo not given)	14.7 µM	15.5 µM	2.59 µM		10.3 µM	14.1 µM	26.3 µM	11.2 µM	7.04 µM	6.13 µM										
CC(O)CN1c2ccccc2Sc2ccc(Cl)cc21 (stereo not given)	> 10 µM	> 10 µM	> 10 µM	> 10 µM	> 10 µM	> 10 µM	> 10 µM	> 10 µM		> 10 µM										
O=C(Nc1nc(-c2ccc(Cl)cc2)nc2c1sc(=S)n2-c1ccccc1)C(F)(F)F	25.3 µM	8.04 µM	> 100 µM	7.98 µM	6.08 µM	> 100 µM	4.01 µM	3.49 µM	20.1 µM	26.3 µM	4.32 µM	2.63 µM	> 100 µM	2.83 µM	5.4 µM	1.71 µM	1.68 µM	4.76 µM	4.34 µM	2.35 µM
C=C1CCC2C3(C)COC(c4ccc(Cl)cc4)OC3CCC2(C)C1/C=C/C1=CCOC1=O (stereo not given)	> 100 µM	> 100 µM	> 100 µM	> 100 µM	39.1 µM	> 100 µM	22.5 µM	41.5 µM	> 100 µM	> 100 µM	24 µM	2.54 µM	17 µM	26.8 µM	4.19 µM	1.83 µM	12.1 µM	1.37 µM	> 100 µM	9.96 µM
CC1=NN(C(=O)c2ccncc2)C(=O)C1N=Nc1ccc2ccccc2c1 (stereo not given)	> 100 µM	> 100 µM	> 20.6 µM	> 100 µM	> 100 µM	15.2 µM	> 100 µM	> 100 µM	> 31.7 µM	> 100 µM										
C/C=C(/C)C(=O)OC1C=C(CO)C(=O)C(OC(=O)C(C)(O)C(C)Cl)C1C(C)C (stereo not given)	2.4 µM	2.49 µM	5.74 µM	4.89 µM	3.57 µM	2.83 µM	4.79 µM		2.16 µM	4.08 µM	1.13 µM	1.07 µM	0.358 µM	2.1 µM	1.35 µM	1.94 µM		0.255 µM	1.69 µM	1.77 µM
CCCN1C(=O)/C(=C/c2ccc(O)cc2)SC1=Nc1ccc(OC)cc1	29.5 µM	29.3 µM	50.2 µM	80 µM	23.2 µM	31.2 µM	34.9 µM	46.1 µM	> 100 µM	48.3 µM	10.3 µM	14.2 µM	17.1 µM	28 µM	14.9 µM	14.7 µM	17.8 µM	10.4 µM	18 µM	6.91 µM
CSc1ccc(C2=NN(C(C)=O)C(c3ccc(F)cc3)C2)cc1 (stereo not given)	61.7 µM	20.1 µM	23.6 µM	31.1 µM	22.1 µM	32.4 µM	36.2 µM	44.1 µM		40.3 µM	23.8 µM	7.11 µM	5.56 µM	16.6 µM	15 µM	16.4 µM	20 µM		17.7 µM	10.1 µM
CC(=O)O[C@H]1C(=O)[C@@]2(C)[C@H]([C@H](OC(=O)c3ccccc3)[C@@]3(O)C[C@H](O)C(C)=C1C3(C)C)[C@]1(OC(C)=O)CO[C@@H]1C[C@@H]2O	> 100 µM	> 100 µM	> 100 µM	> 100 µM	> 100 µM	27.5 µM	> 100 µM	> 100 µM	> 100 µM	> 100 µM										
CC(C)C(NC(=O)C(CCCCN)NC(=O)C(Cc1c[nH]c2ccccc12)NC(=O)C(Cc1ccc(O)cc1)NC(=O)C(CS)NC(=O)C(N)Cc1ccc2ccccc2c1)C(=O)NC(CS)C(=O)NC(C(N)=O)C(C)O (stereo not given) (H-[2Nal]CYWKVCT-NH2; configuration not given here)	> 12.5 µM	> 12.5 µM and 10.9 µM	> 100 µM	> 100 µM		> 12.5 µM	> 100 µM	> 100 µM	> 100 µM	> 100 µM		2.52 µM	> 100 µM	> 100 µM		> 100 µM		> 100 µM	> 100 µM	
COc1ccc(/C=C2\CC(C)CC3C2=NN(c2ccccc2)C3c2ccc(OC)c(OC)c2)cc1OC (stereo not given)	> 100 µM		8.7 µM	17 µM	> 100 µM	> 100 µM	57.6 µM	18.5 µM	12.4 µM	> 100 µM	4.17 µM		2.76 µM	4.87 µM	3.2 µM	3.59 µM	3.4 µM	2.82 µM	3.96 µM	5.32 µM
